# Results from PMC9491098, “Discovery of novel drug-like antitubercular hits targeting the MEP pathway enzyme DXPS by strategic application of ligand-based virtual screening” (Chemical Science, 2022).
# Read-outs that look alike come from different tables or passages of the source.
# How the values were obtained:
# MtDXPS [1] = molecular target: T1, MtDXPS (Mycobacterium tuberculosis, UniProt P9WNS3); assay: biochemical
# MtDXPS [2] = molecular target: T1, MtDXPS; assay: biochemical; conditions: for Ki: MtDXPS
# DrDXPS (WT) = DrDXPS (WT) (Deinococcus radiodurans, UniProt Q9RUB5); conditions: pseudo-inhibitors; cited from earlier work
# Chain of DrDXPS (WT) (Q9RUB5 whole entry, looked up): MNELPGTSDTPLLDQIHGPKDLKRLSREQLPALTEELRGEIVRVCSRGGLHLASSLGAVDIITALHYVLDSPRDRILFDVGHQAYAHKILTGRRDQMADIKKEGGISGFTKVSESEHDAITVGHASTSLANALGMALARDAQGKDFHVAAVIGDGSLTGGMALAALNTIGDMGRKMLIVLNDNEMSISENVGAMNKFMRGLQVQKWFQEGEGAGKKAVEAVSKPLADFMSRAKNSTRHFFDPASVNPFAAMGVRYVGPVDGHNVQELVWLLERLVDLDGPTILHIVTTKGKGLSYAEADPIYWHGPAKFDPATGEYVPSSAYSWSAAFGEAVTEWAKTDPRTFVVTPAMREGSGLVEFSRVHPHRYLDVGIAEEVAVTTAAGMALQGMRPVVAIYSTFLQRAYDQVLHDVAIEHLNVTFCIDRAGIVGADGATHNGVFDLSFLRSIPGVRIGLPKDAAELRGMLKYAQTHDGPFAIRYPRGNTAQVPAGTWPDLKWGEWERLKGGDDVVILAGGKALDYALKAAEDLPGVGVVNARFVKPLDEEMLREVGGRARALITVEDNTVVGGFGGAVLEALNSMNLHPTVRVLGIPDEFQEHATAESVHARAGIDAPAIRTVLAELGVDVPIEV
# [3] = Table S1, first round of LBVS, MtDXPS, read-out: IC50
# [4] = Table S2, second round of LBVS, MtDXPS, read-out: IC50
# [5] = Table 1C, aminothiazole derivatives, read-out: K i*
# [6] = Table 1B, oxime derivatives, read-out: K i*
# [7] = Table 1A, indole derivatives, read-out: K i*
# [8] = Table S3, third round of LBVS, MtDXPS, read-out: IC50
# T1 sequence (P9WNS3 whole entry, looked up): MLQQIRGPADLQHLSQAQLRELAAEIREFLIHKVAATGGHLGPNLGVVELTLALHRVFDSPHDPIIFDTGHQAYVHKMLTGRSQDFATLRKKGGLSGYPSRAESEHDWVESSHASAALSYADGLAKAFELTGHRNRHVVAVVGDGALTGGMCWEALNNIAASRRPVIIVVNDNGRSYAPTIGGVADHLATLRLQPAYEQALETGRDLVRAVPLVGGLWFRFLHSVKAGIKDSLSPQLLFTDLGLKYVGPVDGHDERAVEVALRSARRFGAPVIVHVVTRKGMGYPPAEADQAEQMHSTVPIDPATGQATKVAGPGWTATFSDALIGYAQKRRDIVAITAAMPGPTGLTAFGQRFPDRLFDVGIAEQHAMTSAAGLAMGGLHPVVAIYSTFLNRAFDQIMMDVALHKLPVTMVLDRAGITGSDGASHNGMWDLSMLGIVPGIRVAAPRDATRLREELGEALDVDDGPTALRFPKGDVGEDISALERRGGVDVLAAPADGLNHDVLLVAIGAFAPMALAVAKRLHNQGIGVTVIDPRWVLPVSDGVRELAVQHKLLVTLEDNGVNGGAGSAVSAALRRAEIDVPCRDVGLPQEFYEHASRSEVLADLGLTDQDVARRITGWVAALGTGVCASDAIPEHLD
smiles,measurement,setting,value
COc1cc(Cl)c(/C=C2\SC(=S)N(CC(=O)O)C2=O)c(OC)c1 [Compound 50],IC50,MtDXPS [1],> 240 µM
Cc1sc(N)c(C(=O)c2ccccc2)c1C [Compound 38],IC50,MtDXPS [1]; [3],> 120 µM
CSc1ccc(C2N=C(N)Nc3nc4ccccc4n32)cc1 (stereo not drawn) [Compound 37],IC50,MtDXPS [1]; [3],> 60 µM
Cc1nc(C)c(-c2csc(Nc3cccc(Cl)c3C)n2)s1 [Compound 8],IC50,MtDXPS [1]; IC50 against MtDXPS,117 ± 25 µM
COc1ccc(OC/C(=N\O)c2ccc(O)cc2O)cc1 [Compound 111],IC50,MtDXPS [1]; [4],> 300 µM
CCc1cc(C(N)=O)c(NC(=O)c2cccnc2)s1 [Compound 87],IC50,MtDXPS [1]; [3],> 60 µM
Cc1ccc(-n2c(S)nnc2CCn2nc(C)cc2C)cc1 [Compound 73],IC50,MtDXPS [1]; [3],> 500 µM
C=CCN1C(=O)N/C(=C/c2ccc(O)c(OCC)c2)C1=O [Compound 59],IC50,MtDXPS [1]; [3],> 30 µM
OCc1cccnc1-c1nc2ccccc2s1 [Compound 61],IC50,MtDXPS [1]; [3],> 60 µM
CCNC(=S)Nc1ccc(Cc2ccncc2)cc1 [Compound 52],IC50,MtDXPS [1]; [3],> 240 µM
Cc1sc(-n2c(C)cc(/C=N/O)c2C)c(C(=O)O)c1C [Compound 118],IC50,MtDXPS [1]; [4],> 800 µM
ON=C(c1ccccc1)c1ccccc1 [Compound 115],IC50,MtDXPS [1]; [4],> 500 µM
COc1ccc(Cn2ccnc2)cc1N [Compound 70],IC50,MtDXPS [1]; [3],> 1000 µM
Cc1nc(N)sc1-c1csc(Nc2cccc(C(F)(F)F)c2)n1 [Compound 28],Ki,MtDXPS [2]; [5],0.4 ± 0.06 µM
O=C1N/C(=C/c2ccc(O)c(I)c2)C(=O)N1c1ccc(Cl)cc1 [Compound 60],IC50,MtDXPS [1]; [3],> 120 µM
CC(C)Cc1nc2ccccc2n1Cc1ccc(Cl)cc1 [Compound 104],IC50,MtDXPS [1]; [4],> 63 µM
CC(C)c1ccc(CN(C(=O)COc2ccccc2)c2ccccn2)cc1 [Compound 47],IC50,MtDXPS [1]; [3],> 30 µM
CCc1ccc(C2N=C(N)Nc3nc4ccccc4n32)cc1 (stereo not drawn) [Compound 124],IC50,MtDXPS [1]; [4],> 30 µM
"COc1cncc(Cn2ccnc2)c1 [Compound 1, reference compound]",IC50,MtDXPS [1],> 2000 µM
same,inhibition of DrDXPS,DrDXPS (WT),weak inhibitors
COc1cc(/C=C2\C(=O)Nc3ccc(Br)cc32)cc(OC)c1O [Compound 88],IC50,MtDXPS [1]; [3],> 120 µM
CCCSc1nnc(-c2ccccc2NC(C)=O)c(O)n1 [Compound 89],IC50,MtDXPS [1]; [3],> 120 µM
CO/N=C(\Cc1ccc(Cl)cc1)c1ccc(O)cc1O [Compound 20],Ki,MtDXPS [2]; [6],> 10 µM
OCCc1nc2ccccc2n1Cc1ccc(Cl)cc1 [Compound 101],IC50,MtDXPS [1]; [4],> 440 µM
COc1ccc(OC)c(C2CC(=O)NC3=C2C(=O)CCC3)c1 (stereo not drawn) [Compound 63],IC50,MtDXPS [1]; [3],> 500 µM
O=C1/C(=N\O)c2c(Cl)cccc2N1Cc1ccccc1 [Compound 113],IC50,MtDXPS [1]; [4],> 30 µM
OCc1cn(Cc2ccc(Cl)cc2)c2ccccc12 [Compound 16],Ki,MtDXPS [2]; [7],5.5 ± 0.6 µM
NC1=NC(c2ccccc2F)n2c(nc3ccccc32)N1 (stereo not drawn) [Compound 123],IC50,MtDXPS [1]; [4],> 120 µM
OCCc1nc2ccccc2n1Cc1cccc(Cl)c1 [Compound 100],IC50,MtDXPS [1]; [4],> 236 µM
Cc1nc(-c2ccccc2)nc(Nc2ccccc2)c1Cc1ccccc1 [Compound 45],IC50,MtDXPS [1]; [3],> 15 µM
O=C(O)c1cc(O)ccc1C=C(Cl)Cl [Compound 79],IC50,MtDXPS [1]; [3],> 1000 µM
CCCCC(C(=O)O)C(C)CC(=O)Nc1nncs1 (stereo not drawn) [Compound 80],IC50,MtDXPS [1]; [3],> 1000 µM
Cc1ccc(-c2csc(Nc3cccc(Cl)c3C)n2)cc1 [Compound 134],IC50,MtDXPS [1]; [8],> 16 µM
Nc1ncc2c(n1)CN(Cc1ccc3c(c1)OCO3)C2=O [Compound 108],IC50,MtDXPS [1]; [4],> 260 µM
COCc1cn(Cc2ccc(Cl)c(Cl)c2)c2ccccc12 [Compound 14],Ki,MtDXPS [2]; [7],> 5 µM
Cc1ccc(C(=O)Nc2ccc(O)cc2C(=O)O)cc1 [Compound 86],IC50,MtDXPS [1]; [3],> 120 µM
O=C1NC(=O)C(c2ccccc2)N1 (stereo not drawn) [Compound 56],IC50,MtDXPS [1]; [3],> 1000 µM
Cc1c(/N=C2\C(=O)N(CC(=O)O)c3ccccc32)c(=O)n(-c2ccccc2)n1C [Compound 84],IC50,MtDXPS [1]; [3],> 120 µM
N#Cc1ccc2c(CO)cn(Cc3ccc(Cl)c(Cl)c3)c2c1 [Compound 18],Ki,MtDXPS [2]; [7],1.7 ± 0.3 µM
Cc1ccc(C)c2c1/C(=N/O)C(=O)N2Cc1ccccc1 [Compound 114],IC50,MtDXPS [1]; [4],> 60 µM
OCCc1nc2ccccc2n1Cc1ccc(F)cc1 [Compound 102],IC50,MtDXPS [1]; [4],> 540 µM
O=c1c2ncccc2nc(O)n1Cc1cccnc1 [Compound 65],IC50,MtDXPS [1]; [3],> 240 µM
Nc1ccncc1/C(=N/O)c1ccccc1 [Compound 116],IC50,MtDXPS [1]; [4],> 2000 µM
CCn1c(S)nnc1-c1csc2c1CCCC2 [Compound 40],IC50,MtDXPS [1]; [3],> 240 µM
NC(Cc1ccc(O)cc1)c1nc2ccccc2[nH]1 (stereo not drawn) [Compound 75],IC50,MtDXPS [1],> 1000 µM
O=Cc1cn(Cc2ccc(Cl)c(Cl)c2)c2ccccc12 [Compound 13],Ki,"MtDXPS [2]; K i* (μM), Table 1A, indole derivatives",> 10 µM
Nc1ncc2c(n1)CN(Cc1ccccc1C(F)(F)F)C2=O [Compound 107],IC50,MtDXPS [1]; [4],> 380 µM
N/N=C(\Cc1ccc(Cl)cc1)c1ccc(O)cc1O [Compound 21],"inhibitory activity against MtDXPS, SAR statement",MtDXPS [2]; SAR discussion of Table 1A–C,activity is partially retained
same,Ki,MtDXPS [2]; [6],0.4 ± 0.05 µM
Cc1nc(N)sc1-c1csc(Nc2ccccc2C(F)(F)F)n1 [Compound 27],Ki,MtDXPS [2]; [5],0.3 ± 0.02 µM
FC(F)(F)c1ccc(Nc2nc(-c3ccncc3)cs2)cc1 [Compound 132],IC50,MtDXPS [1]; [8],> 60 µM
